# Data as given in paper PMC3612106, “Metabolism of BYZX in Human Liver Microsomes and Cytosol: Identification of the Metabolites and Metabolic Pathways of BYZX” (PLoS ONE, 2013).
# Like-named read-outs stand apart in the source and are kept apart here.
# Legend:
# [1] = tested on: pooled HLMs; assay: Initial estimation of metabolism enzymes in pooled HLMs; type: in vitro ADME, human; conditions: 5 mM ABT preincubated 30 min, 0.4 mg/mL pooled HLMs, 20 µM BYZX
# Experimental: Initial estimation of the main metabolic pathway in HLMs was performed using specific inhibitors, or by altering experimental conditions, to identify CYP and non-CYP metabolic pathway. Three groups of incubation of BYZX with pooled HLMs under different additive processes were carried out in parallel to identify whether the metabolites produced were mediated by CYPs or not. In Group I, the incubation mixture including 0.4 mg/mL pooled HLMs protein, 4 µL of NADP/NADPH solution (0.026 M NADP and 0.012 M NADPH in 1% NaHCO3 solution) and 5 mM 1-aminobenzotriazole (ABT, 1 M dissolved in dimethyl sulfoxide, DMSO) were preincubated at 37°C for 30 min, and then 20 µM BYZX was added into the incubation system (n = 2). In Group II, the incubation mixture including 0.4 mg/mL pooled HLMs protein were preincubated at 45°C for 10 min to abolish the activities of the flavin-containing monooxygenases (FMOs), and then 20 µM BYZX was added and precincubated at 37°C for 5 min, and then 4 µL of NADP/NADPH solution was added to initiate the reaction (n = 2). In Group III, the incubation mixture including 0.4 mg/mL pooled HLMs protein and 20 µM BYZX were preincubated at 37°C for 5 min, and then 4 µL of NADP/NADPH solution or […] NaHCO3 solution were added to initiate the reaction (n = 2). […]
# [2] = target: T1, CYP3A4 (Homo sapiens, UniProt P08684); assay: Incubation and kinetics with recombinant human CYP3A4; type: in vitro ADME; parameters: purchased BD Gentest (Woburn, MA); host or cells: baculovirus-insect cells; conditions: for K m of N-des-ethylation: recombinant CYP3A4 0.04 mg/mL, BYZX fitted to allosteric sigmoidal kinetics
# Experimental: (§1) Commercial baculovirus-insect cell-expressed human CYPs (0.1 mg/mL) including CYP1A2, 2A6, 2B6, 2C8, 2C9, 2C19, 2D6, 2E1 and 3A4 were incubated with 20 µM BYZX and 3 µM M2 in the aforementioned method respectively. After 40 min 1 volume of ice cold methanol was added to terminate the reaction. The mixture was vortexed for 1 min and centrifuged at 13 000 rpm for 15 min. 7 µL of the supernatant was injected into the LC-MS system for analysis.
# (§2) The kinetics studies were performed using human liver cytosol, HLMs, and recombinant human CYP3A4 and CYP2C8. Before the kinetic study, the incubation time and the enzyme concentration for linear formation of metabolites were optimized. The concentrations of cytosol, HLMs, CYP3A4 and CYP2C8 protein were 0.4, 0.4, 0.04 and 0.1 mg/mL, respectively. The incubation times of HLMs, CYP3A4 and CYP2C8 were […], respectively. […] The following equation was applied, assuming a Michaelis–Menten equation: V = V max× [S]/(K m+[S]), where V is the rate of reaction, V max is the maximum velocity, K m is the Michaelis constant (substrate concentration at half of V max), and [S] is the substrate concentration. Eadie-Hofstee plot was used to confirm allosteric kinetics.
# Target sequence in this assay (P08684 whole entry): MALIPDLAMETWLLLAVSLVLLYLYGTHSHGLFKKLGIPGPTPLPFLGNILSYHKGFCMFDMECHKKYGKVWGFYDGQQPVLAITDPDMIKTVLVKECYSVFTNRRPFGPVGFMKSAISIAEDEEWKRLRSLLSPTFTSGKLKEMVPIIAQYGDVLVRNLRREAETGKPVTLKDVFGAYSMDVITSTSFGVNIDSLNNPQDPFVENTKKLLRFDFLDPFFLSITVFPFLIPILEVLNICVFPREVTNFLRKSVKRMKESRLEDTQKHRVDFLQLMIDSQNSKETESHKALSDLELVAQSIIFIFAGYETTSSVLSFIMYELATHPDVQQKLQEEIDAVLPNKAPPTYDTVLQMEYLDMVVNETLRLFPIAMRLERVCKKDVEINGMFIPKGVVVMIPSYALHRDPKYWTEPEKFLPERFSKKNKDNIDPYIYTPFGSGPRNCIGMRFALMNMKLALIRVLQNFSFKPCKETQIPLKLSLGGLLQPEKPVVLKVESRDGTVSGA
# [3] = Metabolism and kinetics in pooled HLMs; type: in vitro ADME, human; conditions: for K m of N-des-ethylation: HLMs 0.4 mg/mL; for microsomal CLint: pooled human liver microsomes
# Experimental: BYZX (20 µM) was incubated in a 200 µL of reaction buffer solution containing 0.1 M Tris-HCl (pH 7.4), 0.15 M MgCl2, NADPH-generating system (9.7 mM dl-isocitrate trisodium and 0.07 unit of isocitrate dehydrogenase), and 1 mg/mL pooled HLMs. The incubation mixture was preincubated at 37°C for 5 min, and then the reaction was initiated by adding 4 µL of NADP/NADPH solution (0.026 M NADP and 0.012 M NADPH in 1% NaHCO3 solution). After incubation at 37°C for 120 min, 200 µL of cold methanol was added to terminate the reaction and precipitate the protein. The mixture was vortexed for 1 min and centrifuged at 13 000 rpm for 15 min. 7 µL of the supernatant was injected into the LC system.
# (§3) Moreover, very small amount of M3 was isolated from pooled incubation samples by HPLC-UV on an ODS column with a gradient solvent system consisting of methanol and 10 mM ammonium formate in water. Then, M3 were incubated in pooled HLMs, recombinant CYPs, and human cytosol to confirm the further metabolism.
# as §2
# [4] = target: T2, CYP2C8 (Homo sapiens, UniProt P10632); assay: Incubation and kinetics with recombinant human CYP2C8; type: in vitro ADME; conditions: for K m of N-des-ethylation: recombinant CYP2C8 0.1 mg/mL
# T2 construct: purchased BD Gentest (Woburn, MA); host or cells: baculovirus-insect cells
# T2 sequence (P10632 1-490): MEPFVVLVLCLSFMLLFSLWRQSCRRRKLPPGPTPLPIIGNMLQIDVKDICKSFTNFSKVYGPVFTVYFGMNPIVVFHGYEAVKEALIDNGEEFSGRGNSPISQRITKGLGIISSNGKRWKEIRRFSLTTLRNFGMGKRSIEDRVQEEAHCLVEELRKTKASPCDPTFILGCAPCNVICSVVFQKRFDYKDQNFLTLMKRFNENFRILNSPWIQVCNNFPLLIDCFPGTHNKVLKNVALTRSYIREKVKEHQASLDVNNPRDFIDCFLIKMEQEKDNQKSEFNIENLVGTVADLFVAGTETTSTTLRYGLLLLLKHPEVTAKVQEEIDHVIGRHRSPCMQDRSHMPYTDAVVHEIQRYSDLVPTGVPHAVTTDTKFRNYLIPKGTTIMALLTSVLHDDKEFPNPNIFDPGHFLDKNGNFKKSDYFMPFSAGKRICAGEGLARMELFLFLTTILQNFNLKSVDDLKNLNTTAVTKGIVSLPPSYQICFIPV
# Experimental: as §1, §2
# [5] = target: T3, NADPH-CYP450 oxidoreductase (OR) and cytochrome b5 (cyt b5) (Homo sapiens, UniProt P00167+P16435); assay: Incubation with recombinant OR and cyt b5 (Sf9 expression); type: in vitro ADME
# T3 construct: made in house; host or cells: Sf9 insect cells
# Experimental: In order to determine whether OR and cyt b5 are the reductases of BYZX, OR and cyt b5 were expressed individually and together in our previous method using insect cell expression system, Sf9 cell line, [14]. The incubation method was similar to what described above. The production of M2 was determined.
# [6] = tested on: PC12 cells; conditions: cited from earlier work
# [7] = Metabolism and kinetics in human liver cytosol; type: in vitro ADME
# Experimental: as §3, §2
# Estimation of the kinetics for BYZX hydrogenation in human liver cytosol was similar to what described above. BYZX in a series of concentration (5.0, 10.0, 20.0, 40.0, 100.0, 150.0, 200.0 µM) were incubated with 0.2 mg/mL of cytosol protein for 20 min at 37°C, and the different formation rates of M2 were assayed for estimating the kinetic parameters.
# [8] = tested on: chemical-induced learning and memory impairments; conditions: rodents; cited from earlier work
# [9] = tested on: formation of M2 from BYZX in human liver cytosol; assay: in vitro; type: in vitro ADME; conditions: 100 µM inhibitor, 20 µM BYZX, human liver cytosol (Fig. 6B)
# Experimental: (§4) Some reductase inhibitors and substrate were used to inhibit the hydrogenate reaction of BYZX. 20 µM BYZX was incubated with 100 µM dicoumarol in human liver cytosol and was incubated with 100 µM benzylideneacetone and with 20 µM finasteride in HLMs, respectively.
# [10] = tested on: reductase-mediated hydrogenation of BYZX (formation of M2); assay: in vitro; type: in vitro ADME, human; conditions: human
# Experimental: as §4
# [11] = tested on: formation of M2 from BYZX in HLMs; assay: Inhibition of BYZX hydrogenation in HLMs; type: in vitro ADME, human; conditions: 20 µM BYZX
# Experimental: as §4
# [12] = target: T1, CYP3A4; assay: in vitro; conditions: pooled human liver microsomes, probe M2 20 µM (formation of M1)
# Target sequence in this assay (P08684 2-503): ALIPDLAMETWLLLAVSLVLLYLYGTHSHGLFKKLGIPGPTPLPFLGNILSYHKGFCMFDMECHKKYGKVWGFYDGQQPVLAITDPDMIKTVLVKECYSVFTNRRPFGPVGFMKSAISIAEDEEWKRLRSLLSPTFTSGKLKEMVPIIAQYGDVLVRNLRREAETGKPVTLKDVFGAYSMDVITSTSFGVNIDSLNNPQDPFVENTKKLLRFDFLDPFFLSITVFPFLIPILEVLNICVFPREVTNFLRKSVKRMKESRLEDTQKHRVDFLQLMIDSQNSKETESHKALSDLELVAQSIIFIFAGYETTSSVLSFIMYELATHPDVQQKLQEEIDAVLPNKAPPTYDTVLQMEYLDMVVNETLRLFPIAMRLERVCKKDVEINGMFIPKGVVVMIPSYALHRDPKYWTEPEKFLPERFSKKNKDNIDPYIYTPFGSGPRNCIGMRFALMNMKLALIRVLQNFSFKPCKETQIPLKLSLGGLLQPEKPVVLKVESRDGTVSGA
structure (smiles),measurement,setting,value
"Nn1nnc2ccccc21 [ABT, 1-aminobenzotriazole]",Effect on formation of desethyl metabolite M3 from BYZX,[1],extensively suppressed
same,Effect on hydrogenation of BYZX to M2,[1],not significantly inhibited
CCN(CC)Cc1ccc(CC2Cc3cc(OC)c(OC)cc3C2=O)cc1 (stereo not shown) [M2],microsomal CLint,"[2]; human, recombinant human CYP3A4 (baculovirus-insect cell-expressed), recombinant CYP3A4, read-out: Cl int of N-des-ethylation (M1 formation)",6.01 µL/min/mg
same,V max of N-des-ethylation (M1 formation),[2]; recombinant CYP3A4,0.392±0.016 nmol/min/mg protein
same,K m of N-des-ethylation,[2],65.2 ± 7.2 µM
same,Cl int of CYP3A4 compared with that of CYP2C8 (M1 formation),[2]; recombinant CYP3A4 vs CYP2C8,over 2 folds
same,V max of N-des-ethylation (M1 formation),[3]; HLMs,0.209±0.010 nmol/min/mg protein
same,K m of N-des-ethylation,[3],105.7 ± 10.9 µM
same,microsomal CLint,"[3]; human, pH 7.4, HLMs, read-out: Cl int of N-des-ethylation (M1 formation)",1.98 µL/min/mg
same,microsomal CLint,"[4]; human, recombinant human CYP2C8 (baculovirus-insect cell-expressed), recombinant CYP2C8, read-out: Cl int of N-des-ethylation (M1 formation)",2.58 µL/min/mg
same,V max of N-des-ethylation (M1 formation),[4]; recombinant CYP2C8,0.370±0.024 nmol/min/mg protein
same,K m of N-des-ethylation,[4],143.2 ± 17.7 µM
"CCN(CC)Cc1ccc(/C=C2\Cc3cc(OC)c(OC)cc3C2=O)cc1 [BYZX, (E)-2-(4-((diethylamino)methyl)benzylidene)-5,6-dimethoxy-2,3-dihydroinden-one]",Cl int of N-des-ethylation (M3 formation),[2]; recombinant CYP3A4,6.76 A.U.
same,V max of N-des-ethylation (M3 formation),[2]; recombinant CYP3A4,3.3±0.4 A.U.
same,K m of N-des-ethylation,[2],488.2 ± 160.2 µM
same,Metabolism into M2 in S9 fraction of blank Sf9 cells,[5]; blank Sf9 cells S9,rapidly metabolized into M2
same,Rate of formation of M2 in mixture of recombinant OR and cyt b5,[5]; compared with blank Sf9 S9,significantly decreased
same,K m of hydrogenation (M2 formation),[3]; HLMs,21.4 ± 1.4 µM
same,V max of hydrogenation (M2 formation),[3]; HLMs,0.252±0.008 nmol/min/mg protein
same,K m of N-des-ethylation,[3],46.4 ± 5.9 µM
same,Cl int of N-des-ethylation (M3 formation),"[3]; human, microsomes",2.39 A.U.
same,V max of N-des-ethylation (M3 formation),"[3]; human, pH 7.4",0.111±0.008 A.U.
same,microsomal CLint,"[3]; human, pH 7.4, HLMs, read-out: Cl int of hydrogenation (M2 formation)",11.8 µL/min/mg
same,Cl int of N-des-ethylation (M3 formation),[4]; recombinant CYP2C8,1.59 A.U.
same,V max of N-des-ethylation (M3 formation),[4]; recombinant CYP2C8,0.099±0.005 A.U.
same,K m of N-des-ethylation,[4],62.1 ± 8.2 µM
same,Effect on apoptosis induced by hydrogen peroxide,[6],protect
same,K m of hydrogenation in cytosol relative to HLMs,[7]; cytosol vs HLMs,about 2 times
same,Rate of hydrogenation (V max) in human liver cytosol relative to HLMs,[7]; cytosol vs HLMs,about 15 times
same,K m of hydrogenation (M2 formation),[7]; human liver cytosol,38.9 ± 2.5 µM
same,V max of hydrogenation (M2 formation),[7]; human liver cytosol,3.56±0.07 nmol/min/mg protein
same,Effect on chemical-induced learning and memory impairments,[8],significantly improve
O=c1oc2ccccc2c(O)c1Cc1c(O)c2ccccc2oc1=O [dicoumarol],Effect on hydrogenation of BYZX (formation of M2),[9],dramatic inhibitory effect
same,IC50 at 20 min,[10],1.6 ± 1.3 µM
same,IC50,"[11]; 0.2 mg/mL protein, 20 min",7.7 ± 1.2 µM
CC(=O)C=Cc1ccccc1 [benzylideneacetone],Effect on hydrogenation of BYZX (formation of M2),[9],significantly suppressed
CC(C)(C)NC(=O)[C@H]1CC[C@H]2[C@@H]3CC[C@H]4NC(=O)C=C[C@]4(C)[C@H]3CC[C@]12C [finasteride],Effect on hydrogenation of BYZX (formation of M2),[11]; 20 µM finasteride,no inhibitory effect
COc1ccc2c(c1)c(CC(=O)O)c(C)n2C(=O)c1ccc(Cl)cc1 [indomethacin],IC50 at 20 min,[10],18.8 ± 1 µM
CCNCc1ccc(/C=C2\Cc3cc(OC)c(OC)cc3C2=O)cc1 [M3],Further metabolism of M3,[3]; human,could be further biotransformed into M1
CC(=O)N1CCN(c2ccc(OCC3COC(Cn4ccnc4)(c4ccc(Cl)cc4Cl)O3)cc2)CC1 (stereo not shown) [ketoconazole],IC50,[12],9.8 ± 1.2 µM
